Measured values: PubChem BioAssay AID1919013 (Molecular Pharmacology Branch, DTP, NCI, 2023)

System: LG0703-F498-PDC complex spheroid growth
Assay: Anticancer human tumor LG0703-F498-PDC patient-derived lung adenocarcinoma cell line growth inhibition [AhR]
Settings: for viability, T/C: stronger effect = lower value
Outline: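 Spheroids combined tumor cells with HUVEC endothelial cells and human MSCs as stroma. AhR antagonists were paired with standard or investigational drugs, each dosed in half-log steps down from near clinical Cmax, or from 10 microM where Cmax was unknown.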

[1] = curve of first compound, second compound 0.1 µM
[2] = curve of first compound, second compound 0.316 µM
[3] = curve of first compound, second compound 1 µM
[4] = curve of first compound, second compound 3.16 µM
[5] = curve of first compound, second compound 10 µM
[6] = second compound 0.1 µM, first compound 0.0316 µM
[7] = second compound 0.1 µM, first compound 0.1 µM
[8] = second compound 0.1 µM, first compound 0.316 µM
[9] = second compound 0.1 µM, first compound 1 µM
[10] = second compound 0.1 µM, first compound 3.16 µM
[11] = second compound 0.1 µM, first compound 10 µM
[12] = second compound 0.316 µM, first compound 0.0316 µM
[13] = second compound 0.316 µM, first compound 0.1 µM
[14] = second compound 0.316 µM, first compound 0.316 µM
[15] = second compound 0.316 µM, first compound 1 µM
[16] = second compound 0.316 µM, first compound 3.16 µM
[17] = second compound 0.316 µM, first compound 10 µM
[18] = second compound 1 µM, first compound 0.0316 µM
[19] = second compound 1 µM, first compound 0.1 µM
[20] = second compound 1 µM, first compound 0.316 µM
[21] = second compound 1 µM, first compound 1 µM
[22] = second compound 1 µM, first compound 3.16 µM
[23] = second compound 1 µM, first compound 10 µM
[24] = second compound 3.16 µM, first compound 0.0316 µM
[25] = second compound 3.16 µM, first compound 0.1 µM
[26] = second compound 3.16 µM, first compound 0.316 µM
[27] = second compound 3.16 µM, first compound 1 µM
[28] = second compound 3.16 µM, first compound 3.16 µM
[29] = second compound 3.16 µM, first compound 10 µM
[30] = second compound 10 µM, first compound 0.0316 µM
[31] = second compound 10 µM, first compound 0.1 µM
[32] = second compound 10 µM, first compound 0.316 µM
[33] = second compound 10 µM, first compound 1 µM
[34] = second compound 10 µM, first compound 3.16 µM
[35] = second compound 10 µM, first compound 10 µM
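Also: luminescence taken as a proxy for viable cell amount.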
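For viability, T/C in this document: percent of DMSO vehicle control where 100% means growth equal to vehicle.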

Compound	IC50 [1] [nM]	IC50 [2] [nM]	IC50 [3] [nM]	IC50 [4] [nM]	IC50 [5] [nM]	viability, T/C [6] [%]	viability, T/C [7] [%]	viability, T/C [8] [%]	viability, T/C [9] [%]	viability, T/C [10] [%]	viability, T/C [11] [%]	viability, T/C [12] [%]	viability, T/C [13] [%]	viability, T/C [14] [%]	viability, T/C [18] [%]	viability, T/C [19] [%]	viability, T/C [24] [%]	viability, T/C [25] [%]	viability, T/C [30] [%]	viability, T/C [31] [%]	other results
Nc1ccccc1NC(=O)c1ccc(CNC(=O)OCc2cccnc2)cc1 + Cc1ccccc1N=Nc1ccc(NC(=O)c2ccnn2C)c(C)c1	1140	895	1080	940	1390	89.8	95.3	88.6	54	13.7	1.74	103	93.3	78.7	87.8	78.3	73.9	75.5	76.8	88.6	viability, T/C [15]: 48.4%; viability, T/C [16]: 14.3%; viability, T/C [17]: 1.58%; viability, T/C [20]: 77.3%; viability, T/C [21]: 53%; viability, T/C [22]: 15.2%; viability, T/C [23]: 2.52%; viability, T/C [26]: 69.3%; viability, T/C [27]: 48%; viability, T/C [28]: 20%; viability, T/C [29]: 3.32%; viability, T/C [32]: 79.4%; viability, T/C [33]: 54.3%; viability, T/C [34]: 32.1%; viability, T/C [35]: 10.9%
Cn1ncnc1C1c2n[nH]c(=O)c3cc(F)cc(c23)NC1c1ccc(F)cc1 (stereo not drawn) + CC(CO)NC(=O)c1cc(-c2ccc(Cl)cc2)nn(-c2cnn(C)c2)c1=O	> 100	> 100	> 100	> 100	> 100	90.2	80.9	–	–	–	–	83.1	71.5	–	75.1	74.6	71.8	70.2	76.8	66.8	viability, T/C (second compound 0.1 µM, first compound 0.000316 µM): 89.3%; viability, T/C (second compound 0.1 µM, first compound 0.001 µM): 86.6%; viability, T/C (second compound 0.1 µM, first compound 0.00316 µM): 99.1%; viability, T/C (second compound 0.1 µM, first compound 0.01 µM): 79.5%; viability, T/C (second compound 0.316 µM, first compound 0.000316 µM): 79.2%; viability, T/C (second compound 0.316 µM, first compound 0.001 µM): 95.7%; viability, T/C (second compound 0.316 µM, first compound 0.00316 µM): 83.3%; viability, T/C (second compound 0.316 µM, first compound 0.01 µM): 72.6%; viability, T/C (second compound 1 µM, first compound 0.000316 µM): 76.7%; viability, T/C (second compound 1 µM, first compound 0.001 µM): 91.2%; viability, T/C (second compound 1 µM, first compound 0.00316 µM): 88.7%; viability, T/C (second compound 1 µM, first compound 0.01 µM): 73.4%; viability, T/C (second compound 3.16 µM, first compound 0.000316 µM): 80.8%; viability, T/C (second compound 3.16 µM, first compound 0.001 µM): 83.7%; viability, T/C (second compound 3.16 µM, first compound 0.00316 µM): 80.4%; viability, T/C (second compound 3.16 µM, first compound 0.01 µM): 73.9%; viability, T/C (second compound 10 µM, first compound 0.000316 µM): 69.6%; viability, T/C (second compound 10 µM, first compound 0.001 µM): 74.3%; viability, T/C (second compound 10 µM, first compound 0.00316 µM): 79.7%; viability, T/C (second compound 10 µM, first compound 0.01 µM): 73.6%
O=C(C=Cc1cccc(S(=O)(=O)Nc2ccccc2)c1)NO + CC(CO)NC(=O)c1cc(-c2ccc(Cl)cc2)nn(-c2cnn(C)c2)c1=O	607	636	667	690	727	106	112	77.3	28.5	7	1.6	105	101	77	102	106	105	108	101	121	viability, T/C [15]: 32.4%; viability, T/C [16]: 7.34%; viability, T/C [17]: 1.04%; viability, T/C [20]: 77.8%; viability, T/C [21]: 34.6%; viability, T/C [22]: 8.18%; viability, T/C [23]: 1.73%; viability, T/C [26]: 74.4%; viability, T/C [27]: 39%; viability, T/C [28]: 7.73%; viability, T/C [29]: 1.63%; viability, T/C [32]: 81.8%; viability, T/C [33]: 37.6%; viability, T/C [34]: 8.76%; viability, T/C [35]: 1.23%
CC(CO)NC(=O)c1cc(-c2ccc(Cl)cc2)nn(-c2cnn(C)c2)c1=O (stereo not drawn)	–	–	–	–	–	–	–	–	–	–	–	–	–	–	–	–	–	–	–	–	viability, T/C (compound 1 µM): 87.9% [middle of 21 runs]; viability, T/C (compound 10 µM): 77% [middle of 19 runs]; IC50 (compound alone, run of 05/31/2022): > 10000 nM
O=C(c1cc(Cc2n[nH]c(=O)c3ccccc23)ccc1F)N1CCN(C(=O)C2CC2)CC1 + CC(CO)NC(=O)c1cc(-c2ccc(Cl)cc2)nn(-c2cnn(C)c2)c1=O	> 10000	> 10000	> 10000	> 10000	> 10000	95.2	99.8	94.8	86.6	95.3	70.4	96.2	98.4	87.5	93	108	89.3	91	77.4	78.6	viability, T/C [15]: 82.4%; viability, T/C [16]: 88.8%; viability, T/C [17]: 83.1%; viability, T/C [20]: 95.7%; viability, T/C [21]: 74.4%; viability, T/C [22]: 86.1%; viability, T/C [23]: 81%; viability, T/C [26]: 94.5%; viability, T/C [27]: 74.1%; viability, T/C [28]: 79%; viability, T/C [29]: 72%; viability, T/C [32]: 82.7%; viability, T/C [33]: 80%; viability, T/C [34]: 81.8%; viability, T/C [35]: 79.8%
